From patent publication US5393786A, “Method for treating inflammation, ischemia-induced cell damage and muscular dystrophy” (priority 1993, dated 1995)
Structures can show the parent of a compound that is named as a salt. Where two headings read alike, the source gives them in different places.

What was measured:
[1] = tested on: hippocampal CA1 pyramidal cell layer; assay: Stroke model in rats (four-vessel occlusion), hippocampal CA1 damage; conditions: for Damage Score, Hippocampus: scale 0-3, mean ± SE
Source text: (§1) Strokes were produced in rats by occluding the four arteries that supply blood to the brain according to the following procedure. Male Wistar rats (250-280 g; Hilltop Laboratories, Scottsdale, Pa.) were anesthetized with metofane and placed into a stereotaxic instrument. A longitudinal incisio was made on the dorsal surface of the neck. The neck muscles were reflected to expose the dorsal surface of the spinal column. The two vertebral arteries were exposed where they pass through the first cervica vertebra. Both arteries were permanently occluded by the application of electrocautery. After coagulation of the vertebral arteries, the rat was removed from the stereotaxic instrument and the surgical wound was sutured. Two longitudinal incisions were then made on the ventral surface of the neck. The two common carotid arteries were exposed and dissected free from surrounding nerves and connective tissue. Reversible atraumatic clamps, fabricated mainly from silicon rubber tubing, were placed around each carotid artery in a manner such that the vessels were not traumatize or occluded. The clamps were externalized through the ventral neck incision. A suture was also placed through the neck dorsal to the carotids, esophagus and trachea, and tied loosely behind the neck. This suture is tied tightly at the time ischemia is induced in order to restrict collateral circulation reaching the brain through the dorsal muscles of the neck. The surgical wounds were then closed. After the surgery, the rats were allowed to recover for 24 hours (free access to water, but no food during this period).
(§2) On the day of testing, test compounds were administered at various times before stroke induction. Strokes (cerebral ischemia) were induced by tightening the clamps around the carotids, thereby stopping blood flow in the carotids. Rats in which strokes were successfully produced lost the righting reflex and became unresponsive to stimuli. Collateral circulatio through the dorsal neck muscles was then restricted by tightening the previously implanted suture. […] After 30 minutes of ischemia, the carotid clamps wer released, the neck suture was loosened, and blood flow to the brain was restored. Following the period of ischemia, the rats were allowed free access to food and water. Rats were again treated with test compounds at various times after the stroke. On the third day after the stroke the animals were sacrificed and their brains were removed, frozen and sectioned through the striatum and hippocampus. Sections were mounted on glass slides and stained with hematoxylin and eosin.
(§3) Two of the areas of the brain that are most susceptible to ischemia induce damage, both in rats and humans, are the CA1 pyramidal cell layer of the hippocampus and the striatal cell layer of the striatum. In animals that remain unresponsive for the 30 minute period of ischemia, the CA1 pyramidal cell layer and the striatal cell layer are completely destroyed. These layers of cells were examined microscopically in histological sections prepared from the hippocampus and striatum. Brain damage was rated according to the following scale:
(§4) 0=no damage, completely intact cell layer
(§5) 1=mild damage, onethird of cell layer dead
(§6) 2=moderate damage, twothirds of cell layer dead
(§7) 3=severe damage, complete destruction of cell layer
(§8) Damage in 10-12 sections from each brain was assessed in order to obtain a accurate estimate of damage. An average damage score was calculated for each treatment group. Scores from treated groups were compared statistically with scores from control groups which received only the vehicle used to suspend the compounds. The level of significance was determined using the Mann WhitneyU-test.

[2] = tested on: adjuvant-induced arthritis (uninjected hind paw); assay: Developing Adjuvant-Induced Arthritis Test in Rats; assay type: in vivo, male Lewis-Wistar rats; conditions: po, 720 h, AUC days 16-30; for inhibition in vivo at 50 mg/kg: 50 mg/kg rat weight × 29, p.o. once daily
[3] = tested on: striatal cell layer of the striatum; assay: Stroke model in rats (four-vessel occlusion), striatal damage; assay type: in vivo, male Wistar rats; conditions: scale 0-3, mean ± SE
Source text: as §1, §2, §3, §4, §5, §6, §7, §8

[4] = tested on: ischemia-induced cell damage caused by middle cerebral artery occlusion; assay: Middle Cerebral Artery Occlusion Stroke Model; assay type: in vivo, male spontaneously hypertensive rats; conditions: for toxicity of higher doses (footnote ++): doses above 10/5 mg/kg i.v.
Source text: Strokes were also produced in rats by occluding the middle cerebral artery according to the following procedure. Male spontaneously hypertensive rats were housed in groups of three to four per cage and allowed free access to food and water. The animals were anesthetized with a mixture of 2.5% halothane and air. The anesthetized rats then underwent the following surgical procedure.
A femoral artery of each rat was cannulated to monitor mean arterial pressure and a jugular cannula was inserted in order to provide a means for administering test compounds intravenously. […] The ventral neck area and the area behind each animal's right eye were shaved and washed with antiseptic solution. The right common carotid artery was dissected free of connective tissue through a midline cervical incision and the vessel permanently occluded with a silk ligature. Next, a 1 cm incision perpendicular to, and bisecting a line between the lateral canthus of the right eye and the external auditory canal, was made to expose the temporalis muscle which was retracted and partially excised. Using a dissecting microscope, the right middle cerebral artery was exposed through a 2 mm burr hole drilled 2-3 mm rostral to the fusion of the zygomatic arch with a squamosal bone. Drilling was done under a continuous drip of a 0.9% saline solution to prevent heat injury of the underlying cortex. The dura was cut and retracted to expose the middle cerebral artery.
This artery was occluded in two ways. The first method of occlusion involved permanent cauterization of the artery so that blood flow through the artery was completely eliminated. The second method of occulsion was only temporary (lasting two hours) and involved clamping the artery with microaneurism clips. Test compounds were administered at various times before, during and after occlusion. Each animal's body temperature was maintained at 37° C. during testing using a rectal thermometer connected to a heating pad.
Twenty-four hours after tandem middle cerbral carotid artery occlusion, the test animals were sacrificed and their brains removed and frozen over dry ice. Coronal sections 20 microns thick were cut at half millimeter intervals in a cryostat at -20° C. and dried on a hot plate at 60° C. The sections were then stained with cresyl violet. […] A total infarct volume was then calculated using a computer program that summed all sectional areas measured multiplied by the interval thickness. The lower the infarcted volume obtained, the lower the amount of cell damage caused by the stroke. The level of significance was obtained using Student's "t-test".

[5] = 100 mg/kg orally, 2% acacia, time a (15 min pre, 4 h and 24 h postischemia), control 2.9 ± 0.1
[6] = 25 mg/kg rat weight × 29, p.o. once daily, read-out: % Inhibition of Uninjected Paw Volume Inflammation, Days 16-30
[7] = 100 mg/kg orally, 2% acacia, time a (15 min pre, 4 h and 24 h postischemia), control 2.4 ± 0.4
[8] = 100 mg/kg orally, 2% acacia, time c (30 min pre, 4 h and 24 h postischemia), control 2.7 ± 0.2
[9] = read-out: % Inhibition of Uninjected Paw Volume Inflammation, Days 16-30
[10] = 100 mg/kg orally, 2% acacia, time c (30 min pre, 4 h and 24 h postischemia), control 2.5 ± 0.3
[11] = 100 mg/kg orally, 2% acacia, time c (30 min pre, 4 h and 24 h postischemia), control 1.4 ± 0.3
[12] = 50 mg/kg orally, 2% acacia, time c (30 min pre, 4 h and 24 h postischemia), control 2.73 ± 0.22
[13] = Rattus norvegicus, read-out: % Inhibition of Uninjected Paw Volume Inflammation, Days 16-30, 25 mg/kg rat weight × 29, p.o. once daily
[14] = 50 mg/kg orally, 2% acacia, time c (30 min pre, 4 h and 24 h postischemia), control 2.71 ± 0.22
[15] = 25 mg/kg orally, water, time a (15 min pre, 4 h and 24 h postischemia), control 2.5 ± 0.3
[16] = 100 mg/kg orally, water, time a (15 min pre, 4 h and 24 h postischemia), control 2.7 ± 0.2

## CCN(C)Cc1cc(C(C)(C)C)c(O)c(C(C)(C)C)c1 [4-[(N-ethyl-N-methylamino)methyl]-2,6-bis(1,1-dimethylethyl)phenol methanesulfonate]
[1]; [5]
  Damage Score, Hippocampus: 1.1 ± 0.5
[2]; [6]
  inhibition in vivo at 25 mg/kg: 26%
[3]; [7]
  Damage Score, Striatum: 1.1 ± 0.4

## CN(Cc1cc(C(C)(C)C)c(O)c(C(C)(C)C)c1)Cc1cc(C(C)(C)C)c(O)c(C(C)(C)C)c1 [4-{[N-methyl-N-(4-hydroxy-3,5-bis(1,1-dimethylethyl)benzyl)amino]methyl}-2,6-bis(1,1-dimethylethyl)phenol]
[1]; [8]
  Damage Score, Hippocampus: 2.9 ± 0.2
[2]; [9]
  inhibition in vivo at 50 mg/kg: 77%
[3]; [8]
  Damage Score, Striatum: 2.4 ± 0.4

## CCNC(C)c1cc(C(C)(C)C)c(O)c(C(C)(C)C)c1.Cl (stereo not shown) [4-[1-(ethylamino)ethyl]-2,6-bis(1,1-dimethylethyl)phenol hydrochloride]
[1]; 50 mg/kg orally, 2% acacia, time c, data on only 7 rats
  toxicity in stroke model (footnote ****): data obtained on only 7 rats because of toxicity problems
[1]; 50 mg/kg orally, 2% acacia, time c (30 min pre, 4 h and 24 h postischemia), control 2.6 ± 0.3, only 7 rats because of toxicity
  Damage Score, Hippocampus: 0.9 ± 0.4
[4]; temporary occlusion, 10% DMSO in saline
  toxicity of higher doses (footnote ++): higher doses were toxic in this model
[4]; temporary occlusion, 10/5 mg/kg i.v. (per hour), 10% DMSO in saline, time d, control 106 ± 15
  Infarct Volume: 92 ± 10 (mm)^3
[3]; 50 mg/kg orally, 2% acacia, time c (30 min pre, 4 h and 24 h postischemia), control 1.9 ± 0.4, only 7 rats because of toxicity
  Damage Score, Striatum: 1.5 ± 0.5

## CCCN(CCC)Cc1cc(C(C)(C)C)c(O)c(C(C)(C)C)c1.Cl [4-[(dipropylamino)methyl]-2,6-bis(1,1-dimethylethyl)phenol hydrochloride]
[1]; [10]
  Damage Score, Hippocampus: 1.0 ± 0.4
[2]; [9]
  inhibition in vivo at 50 mg/kg: 64.4%
[4]; temporary occlusion, 20/5 mg/kg i.v. (per hour), saline, time d, control 123 ± 14
  Infarct Volume: 143 ± 12 (mm)^3
[3]; [11]
  Damage Score, Striatum: 1.2 ± 0.4

## CC(C)(C)c1cc(CN2CCCC2)cc(C(C)(C)C)c1O.Cl [4-(1-pyrrolidinomethyl)-2,6-bis(1,1-dimethylethyl)phenol hydrochloride]
[1]; [10]
  Damage Score, Hippocampus: 1.2 ± 0.5
[3]; [11]
  Damage Score, Striatum: 1.5 ± 0.4

## CNCCc1ccc(O)c(C(C)(C)C)c1.Cl [4-[2-(methylamino)ethyl]-2-(1,1-dimethylethyl)phenol hydrochloride]
[1]; [12]
  Damage Score, Hippocampus: 2.78 ± 0.12
[2]; [13]
  inhibition in vivo at 25 mg/kg: 76.6%
[3]; [14]
  Damage Score, Striatum: 1.62 ± 0.35

## CC(C)NCc1cc(C(C)(C)C)c(O)c(C(C)(C)C)c1 [4-[(isopropylamino)methyl]-2,6-bis(1,1-dimethylethyl)-phenol hydrochloride]
[2]; [6]
  inhibition in vivo at 25 mg/kg: 4.9%

## CN(C)CCc1cc(C(C)(C)C)c(O)c(C(C)(C)C)c1.Cl [4-[2-(dimethylamino)ethyl]-2,6-bis(1,1-dimethylethyl)phenol hydrochloride]
[1]; [15]
  Damage Score, Hippocampus: 1.6 ± 0.3
[1]; 50 mg/kg orally, water, time a (15 min pre, 4 h and 24 h postischemia), control 3.0 ± 0.0
  Damage Score, Hippocampus: 0.8 ± 0.4
[1]; [8]
  Damage Score, Hippocampus: 0.2 ± 0.2
[1]; [16]
  Damage Score, Hippocampus: 0.2 ± 0.2
[4]; permanent occlusion, saline
  toxicity of higher doses (footnote ++): higher doses were toxic in this model
[4]; permanent occlusion, 10/5 mg/kg i.v. (per hour), saline, time c, control 154 ± 11
  Infarct Volume: 161 ± 17 (mm)^3
[4]; temporary occlusion, 20/5 mg/kg i.v. (per hour), saline, time d, control 84.7 ± 6.4
  Infarct Volume: 77.6 ± 5.5 (mm)^3
[3]; [15]
  Damage Score, Striatum: 0.9 ± 0.3
[3]; 50 mg/kg orally, water, time a (15 min pre, 4 h and 24 h postischemia), control 2.8 ± 0.2
  Damage Score, Striatum: 0.3 ± 0.2
[3]; [8]
  Damage Score, Striatum: 0.0 ± 0.0
[3]; [16]
  Damage Score, Striatum: 0.1 ± 0.0

## CNCCc1cc(C(C)(C)C)c(O)c(C(C)(C)C)c1.Cl [4-[2-(methylamino)ethyl]-2,6-bis(1,1-dimethylethyl)phenol hydrochloride]
[2]; [13]
  inhibition in vivo at 25 mg/kg: 72.2%
[4]; dose of 50/10 i.v., permanent occlusion
  hypothermia (footnote +++): severe hypothermia
[4]; permanent occlusion, 30/5 mg/kg i.v. (per hour), saline, time c, control 129 ± 14
  Infarct Volume: 130 ± 16 (mm)^3

## CC(C)(C)c1cc(CN2CCOCC2)cc(C(C)(C)C)c1O [4-(4-morpholinylmethyl)-2,6-bis(1,1-dimethylethyl)phenol]
[2]; [6]
  inhibition in vivo at 25 mg/kg: 40.6%
[2]; [9]
  inhibition in vivo at 50 mg/kg: 71.1%

## CC(C)(C)NCc1cc(C(C)(C)C)c(O)c(C(C)(C)C)c1.Cl [4-{[(1,1-dimethylethyl)amino]methyl}-2,6-bis(1,1dimethylethyl)phenol hydrochloride]
[1]; [12]
  Damage Score, Hippocampus: 1.72 ± 0.43
[2]; [6]
  inhibition in vivo at 25 mg/kg: 3.9%
[3]; [14]
  Damage Score, Striatum: 0.75 ± 0.35

## CN(C)CCc1cc(C(C)(C)C)c(O)c(C(C)(C)C)c1 [4-[2-(dimethylamino)ethyl]-2,6-bis(1,1-dimethylethyl)phenol]
[1]; [8]
  Damage Score, Hippocampus: 0.0 ± 0.0
[3]; [8]
  Damage Score, Striatum: 0.0 ± 0.0

## CCN(CC)Cc1cc(C(C)(C)C)c(O)c(C(C)(C)C)c1.Cl [4-[(diethylamino)methyl]-2,6-bis(1,1-dimethylethyl)phenol hydrochloride]
[1]; [10]
  Damage Score, Hippocampus: 2.0 ± 0.5
[3]; [11]
  Damage Score, Striatum: 1.7 ± 0.6

## CN(C)Cc1cc(C(C)(C)C)c(O)c(C(C)(C)C)c1 [4-[(dimethylamino)methyl]-2,6-bis(1,1-dimethylethyl)phenol methanesulfonate]
[1]; [5]
  Damage Score, Hippocampus: 0.9 ± 0.3
[4]; temporary occlusion, 30/5 mg/kg i.v. (per hour), saline, time d (15 min before clamp removal, then 24 h), control 97 ± 10
  Infarct Volume: 69 ± 9 (mm)^3
[3]; [7]
  Damage Score, Striatum: 0.8 ± 0.3

## CCCNCc1cc(C(C)(C)C)c(O)c(C(C)(C)C)c1.Cl [4-[(n-propylamino)methyl]-2,6-bis(1,1-dimethylethyl)phenol hydrochloride]
[1]; 50 mg/kg orally, distilled water, time c (30 min pre, 4 h and 24 h postischemia), control 2.96 ± 0.03
  Damage Score, Hippocampus: 1.48 ± 0.34
[3]; 50 mg/kg orally, distilled water, time c (30 min pre, 4 h and 24 h postischemia), control 2.53 ± 0.22
  Damage Score, Striatum: 1.05 ± 0.33

## CCNCc1cc(C(C)(C)C)c(O)c(C(C)(C)C)c1 [4-[(ethylamino)methyl]-2,6-bis(1,1-dimethylethyl)phenol nitrate]
[1]; 50 mg/kg orally, 2% acacia, time c (30 min pre, 4 h and 24 h postischemia), control 2.90 ± 0.04
  Damage Score, Hippocampus: 1.81 ± 0.36
[3]; 50 mg/kg orally, 2% acacia, time c (30 min pre, 4 h and 24 h postischemia), control 2.30 ± 0.32
  Damage Score, Striatum: 1.26 ± 0.40

## CC(C)(C)c1cc(C(=O)Nc2ccccc2Cl)cc(C(C)(C)C)c1O [N-2-chlorophenyl-3,5-bis(1,1-dimethylethyl)-4-hydroxy-benzamide]
[2]; [9]
  inhibition in vivo at 50 mg/kg: 8.7%

## CN(Cc1cc(C(C)(C)C)c(O)c(C(C)(C)C)c1)Cc1cc(C(C)(C)C)c(O)c(C(C)(C)C)c1.Cl [4-{[N-methyl-N-(4-hydroxy-3,5-bis(1,1-dimethylethyl)benzyl)amino]methyl}-2,6-bis(1,1-dimethylethyl)phenol hydrochloride]
[1]; [8]
  Damage Score, Hippocampus: 2.9 ± 0.1
[3]; [8]
  Damage Score, Striatum: 1.8 ± 0.4

## CN(C)C(=O)c1cc(C(C)(C)C)c(O)c(C(C)(C)C)c1 [N,N-dimethyl-3,5-bis(1,1-dimethylethyl)-4-hydroxybenzamide]
[2]; [9]
  inhibition in vivo at 50 mg/kg: 64.4%
